# Experimental data published in publication PMC6005341, “Identification of “sarsasapogenin-aglyconed” timosaponins as novel Aβ-lowering modulators of amyloid precursor protein processing” (Chemical Science, 2016).
# How the values were obtained:
# [1] = test system: Aβ42 levels in the brain; experiment: In vivo brain Aβ42 level by ELISA after oral dosing; settings: 100 mg kg^–1 oral gavage, three times in 2 days, 3–5 month old C57BL/6 mice
# Experimental: was performed at least three times. The lowest binding scores were computed and the conformations of the corresponding binding pose presented.
# Quantum mechanics/Molecular mechanics. The binding between transmembrane and substrate was further optimized using the QM/MM approach and NWChem software. The quantum part (QM) included TAIII (total 116 atoms), while the rest of the system was modelled as the molecular mechanics (MM) level. The QM region was treated at the DFT level using the B3LYP method. The 6-31G* Pople basis set was employed for all the atoms.
# The transmembrane was described with the AMBER parm99 force field. The binding structure was solvated in a cubic box with 6872 classical SPC/E water molecules. Three negative counter ions (Cl-) were added to neutralize the charges in the system. The structure was optimized by performing the BFGS algorithm for the QM part and the steepest descent algorithm for the MM part. The optimization of these two regions (QM and MM) was alternated until self-consistency was reached.
# Animal experiments: Male C57BL/6N mice were housed in environmentally controlled room (temperature: 25 ± 2 °C, humidity: 50 ± 5%, 12-h light-dark cycle) in Laboratory Animal Unit, The University of Hong Kong and were freely access to food and water. TAIII, TAI SSG and compound 34 were dissolved in 5% Tween 80 and given to the mice by oral gavage at three repeated doses of 100 mg/kg in 48 hours. Mice were administrated with 5% Tween 80 (control group), TAIII, TAI SSG and 34. The experimental procedures were performed with the approval of Committee of Use of Live Animal for Teaching and Research of The University of Hong Kong. Blood (about 600-800 µL) was collected by cardiac puncture and added with 1/10 volume of Na2EDTA (20 mg/mL) to prevent coagulation. After centrifugation at 3000 g for 15 min at 4 °C, plasma was transferred to a centrifuge tube. […] Both plasma and brain samples were stored at -80 °C until they were analyzed. The Aβ42 levels were determined by Wako High Sensitive Aβx-42 ELISA kit. […]
# [2] = target: T1, purified BACE1 (Homo sapiens, UniProt P56817); experiment: β-Secretase assay with purified BACE1; format: biochemical
# T1 construct: purchased Millipore
# Experimental: mM MES, pH5.5. Protein extracts (10 µg) were incubated with testing compounds or vehicle for 1 h at room temperature. The β-secretase activities were assayed by adding 10 µM fluorogenic β-secretase substrate (Millipore) to the reaction mixtures and the fluorescence (excitation, 380; emission, 460) were measured. β-Secretase assays were also performed using purified BACE1 (Millipore) at 100 ng in a buffer containing 50 mM MES, pH 5.5. […]
# [3] = test system: Neuro-2A cells; experiment: Neurite outgrowth, type III β-tubulin immunostaining; format: cell-based; settings: at concentrations that lower Aβ production, 18 h
# Experimental: Immunofluorescence examination of neurite outgrowth: Neuro-2A cells were seeded at 1×105 per glass bottom dishes. After treatment, cells were fixed with 4% paraformaldyde for 10 min, permeabilized with 0.1% Triton X-100, and then blocked with 1% BSA in PBS.
# The cells were incubated with monoclonal antibody raised against type III β-tubulin (Sigma) for 1 h followed by Alexa488 conjugated secondary antibody. Neurite morphology was examined under fluorescence microscope. […]
# T1 sequence (P56817 46-501, species assumed): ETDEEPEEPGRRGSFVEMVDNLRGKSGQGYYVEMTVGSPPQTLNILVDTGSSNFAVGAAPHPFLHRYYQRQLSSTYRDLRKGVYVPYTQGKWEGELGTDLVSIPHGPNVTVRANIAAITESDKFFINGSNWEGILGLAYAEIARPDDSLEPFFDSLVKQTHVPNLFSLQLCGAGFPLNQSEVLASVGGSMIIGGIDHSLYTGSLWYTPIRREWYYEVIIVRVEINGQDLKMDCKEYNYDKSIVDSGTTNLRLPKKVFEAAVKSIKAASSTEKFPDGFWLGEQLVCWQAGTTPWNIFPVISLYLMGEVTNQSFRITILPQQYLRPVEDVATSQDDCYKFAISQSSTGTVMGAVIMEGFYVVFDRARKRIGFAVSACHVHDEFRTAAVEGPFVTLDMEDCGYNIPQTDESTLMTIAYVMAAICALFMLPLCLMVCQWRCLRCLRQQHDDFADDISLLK
SMILES,reduction of Aβ42 levels in the brain [1],activities of purified BACE1 [2],neurite outgrowth [3]
"C[C@H]1CC[C@@]2(OC1)O[C@H]1C[C@H]3[C@@H]4CC[C@@H]5C[C@@H](O[C@@H]6O[C@H](CO)[C@H](O)[C@H](O)[C@H]6O)CC[C@]5(C)[C@H]4CC[C@]3(C)[C@H]1[C@@H]2C [TAI (3), timosaponin A I]",87% ± 14%,–,–
"C[C@H]1CC[C@@]2(OC1)O[C@H]1C[C@H]3[C@@H]4CC[C@@H]5C[C@@H](O[C@@H]6O[C@H](CO)[C@H](O)[C@H](O)[C@H]6O[C@@H]6O[C@H](CO)[C@@H](O)[C@H](O)[C@H]6O)CC[C@]5(C)[C@H]4CC[C@]3(C)[C@H]1[C@@H]2C [TAIII (2), timosaponin A III]",83% ± 13%,did not affect,–
"C[C@H]1CC[C@@]2(OC1)O[C@H]1C[C@H]3[C@@H]4CC[C@@H]5C[C@@H](O)CC[C@]5(C)[C@H]4CC[C@]3(C)[C@H]1[C@@H]2C [SSG (1), sarsasapogenin]",–,–,markedly stimulated
